Here are results for five compounds from patent publication US20250019385A1, “SPIROCYCLIC ANNULATED 2-AMINO-3-CYANO THIOPHENES AND DERIVATIVES FOR THE TREATMENT OF CANCER” (Boehringer Ingelheim International GmbH, priority 2023, published 2025).

pIC50: −log10 of the molar value.

In one series the test system is NCI-H358 cells. Put plainly: NCI-H358 CTG proliferation assay (120 h) (NSCLC, G12C). The following applies: Homo sapiens. Type of series: cell-based. Summed up:
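Cells seeded at 200 per well in RPMI-1640 with 10% FCS, left overnight, then treated with a logarithmic dose series in duplicate for 120 h. Viability measured by CellTiter-Glo luminescence as percent of DMSO controls; IC50 from four-parameter non-linear regression.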

In the next series the test system is SK-CO-1 cells. In words: SK-CO-1 CTG proliferation assay (120 h) (CRC, G12V). The format is cell-based. The conditions noted are these: Homo sapiens. Summed up:
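Cells seeded overnight in EMEM with 10% FCS, then given logarithmic dose series in duplicate for 120 h at 37° C. CellTiter-Glo luminescence expressed as percent of DMSO controls, with a T0 read at dosing; IC50 by four-parameter non-linear regression.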

Another series concerns NCI-H727 cells. In words: NCI-H727 CTG proliferation assay (120 h) (lung cancer, G12V). Type of series: cell-based. The following applies: Homo sapiens. Summed up:
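Cells seeded at 500/well in RPMI + 10% FCS, left overnight, then dosed with a log dilution series in technical duplicate; untreated T0 plate read at compound addition. After 120 h at 37 °C, CellTiter-Glo luminescence read; viability as % of DMSO control, IC50 from four-parameter non-linear regression.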

The test system of a further series is LOVO cells. In words: LOVO CTG proliferation assay (120 h) (CRC, G13D). The format is cell-based. The conditions noted are these: Homo sapiens. Put shortly: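 Cells seeded at 1000/well in DMEM + 10% FCS, dosed next day with a logarithmic compound series, technical duplicates, for 120 h. Viability by CellTiter-Glo luminescence as percent of DMSO control; IC50 from four-parameter non-linear regression.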

Series [1] can be described thus: Metabolic (microsomal) stability assay, human liver microsomes (HLM). The conditions noted are these: 1 μM test compound, predicted clearance as percent of liver blood flow. The format is in vitro ADME.

`C[C@H](Oc1nc(-c2noc3c2CCC[C@@]32CCCc3sc(N)c(C#N)c32)nc2c1CN(C1COC1)C[C@]21CCOC1)[C@@H]1CCCN1C` [II-12]: the negative logarithm of the IC50 (pIC50) (in general, the IC50 on a negative log10 scale, so that one unit is a factor of ten) with NCI-H358 cells was 8.40; in the series on SK-CO-1 cells, 8.30; with NCI-H727 cells, 8.52; in the series with LOVO cells, 7.15. In addition, the “HLM QH” value in series [1] is on record as 26%.
In the same order, the values of `CO[C@H]1CCN(C)[C@@H]1[C@H](C)Oc1nc(-c2noc3c2CCC[C@@]32CCCc3sc(N)c(C#N)c32)nc2c1CN(C1COC1)C[C@]21CCOC1` [II-13] are 8.70, 8.52, 9.00, 8.10 and 66%.
In the same order, the values of `CO[C@@H]1C[C@@H]([C@H](C)Oc2nc(-c3noc4c3CCC[C@@]43CCCc4sc(N)c(C#N)c43)nc3c2CN(C2COC2)C[C@]32CCOC2)N(C)C1` [II-14] are 8.40, 8.22, 8.52, 7.74 and 59%.
The like results for `C[C@H](Oc1nc(-c2noc3c2CCC[C@@]32CCCc3sc(N)c(C#N)c32)nc2c1CNC[C@]21CCOC1)[C@@H]1CCCN1C` [II-15] were, in that order, 9.00, 8.30, 8.52, 7.77 and 63%.
For `C[C@H](Oc1nc(-c2noc3c2CCC[C@@]32SCCc3sc(N)c(C#N)c32)nc2c1COC[C@]21CCOC1)[C@@H]1CCCN1C` [II-16], the pIC50 was 9.00 in the series with NCI-H358 cells, 8.70 in the series with SK-CO-1 cells, 9.00 in the series on NCI-H727 cells and 8.15 with LOVO cells. In addition, the “HLM QH” value in series [1] is given as 64%.
